Blank lines part the entries; values can stand above or below the molecule they belong to. Active and inactive are the calls of the source. The rule behind the calls is not given here. Square brackets hold non-standard residues; d marks the D form. Peptide text beside a SMILES is read from it. Phe(4-NO2) = N[C@@H](Cc1ccc([N+](=O)[O-])cc1)C(=O)O; Phe(3,4-Cl2) = N[C@@H](Cc1ccc(Cl)c(Cl)c1)C(=O)O; Phe(4-Cl) = N[C@@H](Cc1ccc(Cl)cc1)C(=O)O; pT = C[C@@H](OP(=O)(O)O)[C@H](N)C(=O)O
Columns and labels:
[1] = biological target: Serine/threonine-protein kinase PLK2 (Homo sapiens, UniProt Q9NYY3); assay: Inhibition of FITC-GPMQTSpTPKNG-OH binding to Plk2 PBD (unknown origin) after 30 mins by fluorescence polarization assay
Chain of Serine/threonine-protein kinase PLK2 (Q9NYY3 whole entry): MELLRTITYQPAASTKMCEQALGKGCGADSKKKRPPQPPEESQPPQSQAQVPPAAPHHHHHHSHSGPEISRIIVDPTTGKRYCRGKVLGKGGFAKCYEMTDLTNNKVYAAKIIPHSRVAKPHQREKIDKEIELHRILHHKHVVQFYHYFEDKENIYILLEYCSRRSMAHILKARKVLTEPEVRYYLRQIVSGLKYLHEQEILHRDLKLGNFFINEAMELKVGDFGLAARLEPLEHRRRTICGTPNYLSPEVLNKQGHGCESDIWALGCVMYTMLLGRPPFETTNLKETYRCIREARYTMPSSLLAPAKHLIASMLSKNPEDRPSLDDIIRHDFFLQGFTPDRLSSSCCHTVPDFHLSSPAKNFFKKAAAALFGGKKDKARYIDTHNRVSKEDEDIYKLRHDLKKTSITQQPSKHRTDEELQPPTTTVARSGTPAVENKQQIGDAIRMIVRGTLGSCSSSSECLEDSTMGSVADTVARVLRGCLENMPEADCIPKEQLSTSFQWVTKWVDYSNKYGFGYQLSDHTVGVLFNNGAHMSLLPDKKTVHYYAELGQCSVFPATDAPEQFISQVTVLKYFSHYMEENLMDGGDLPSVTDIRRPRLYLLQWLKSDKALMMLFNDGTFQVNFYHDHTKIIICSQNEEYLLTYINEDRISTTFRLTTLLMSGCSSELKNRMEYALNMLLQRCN

[2] = biological target: Serine/threonine-protein kinase PLK3 (Homo sapiens, UniProt Q9H4B4); assay: Inhibition of FITC-GPLATSpTPKNG-OH binding to Plk3 PBD (unknown origin) after 30 mins by fluorescence polarization assay
Chain of Serine/threonine-protein kinase PLK3 (Q9H4B4 whole entry): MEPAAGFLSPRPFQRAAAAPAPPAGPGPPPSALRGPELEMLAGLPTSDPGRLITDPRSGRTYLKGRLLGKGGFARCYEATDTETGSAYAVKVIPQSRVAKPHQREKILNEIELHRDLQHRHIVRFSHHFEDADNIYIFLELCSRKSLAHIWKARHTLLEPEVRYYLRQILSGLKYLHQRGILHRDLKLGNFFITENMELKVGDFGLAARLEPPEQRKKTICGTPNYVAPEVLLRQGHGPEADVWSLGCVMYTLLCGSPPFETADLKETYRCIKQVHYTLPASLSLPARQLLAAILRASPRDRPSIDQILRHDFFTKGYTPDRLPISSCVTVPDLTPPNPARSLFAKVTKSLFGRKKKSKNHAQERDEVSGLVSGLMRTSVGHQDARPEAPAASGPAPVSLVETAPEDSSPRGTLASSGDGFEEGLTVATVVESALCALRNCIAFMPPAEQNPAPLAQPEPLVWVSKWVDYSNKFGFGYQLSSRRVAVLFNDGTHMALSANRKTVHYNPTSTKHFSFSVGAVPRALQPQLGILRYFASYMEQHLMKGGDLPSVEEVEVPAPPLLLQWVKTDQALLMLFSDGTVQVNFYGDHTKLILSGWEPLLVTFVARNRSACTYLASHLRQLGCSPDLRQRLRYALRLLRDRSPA

HeLa [3] = assay: Cell cycle arrest in human HeLa cells assessed as accumulation at G2/M phase at 5 to 20 uM after 48 hrs by propidium iodide staining based flow cytometry; type: functional
[4] = Drug uptake in nucleus of human HeLa cells after 3 hrs by DAPI staining based confocal laser scanning microscopy; type: ADME, subcellular
HeLa [5] = assay: Cell cycle arrest in human HeLa cells assessed as decrease in G0/G1 phase at 5 to 20 uM after 48 hrs by propidium iodide staining based flow cytometry; type: functional
HeLa [6] = assay: Cell cycle arrest in human HeLa cells assessed as decrease in S phase at 5 to 20 uM after 48 hrs by propidium iodide staining based flow cytometry; type: functional
HeLa [7] = assay: Cell cycle arrest in human HeLa cells assessed as decrease in G2/M phase at 20 uM after 48 hrs by propidium iodide staining based flow cytometry relative to control; type: functional; set-up: scale not given: the % may be the effect or the level left
HeLa [8] = assay: Cell cycle arrest in human HeLa cells assessed as decrease in G2/M phase at 20 uM after 24 hrs by propidium iodide staining based flow cytometry relative to control; type: functional; set-up: scale not given: the % may be the effect or the level left
HeLa [9] = assay: Cell cycle arrest in human HeLa cells assessed as decrease in G2/M phase at 20 uM after 12 hrs by propidium iodide staining based flow cytometry relative to control; type: functional
HeLa [10] = assay: Decrease in cyclin B1 expression level in human HeLa cells after 48 hrs by Western blot analysis; type: functional, cell-based
HeLa [11] = assay: Decrease in CDK1 expression level in human HeLa cells after 48 hrs by Western blot analysis; type: functional, cell-based
HeLa [12] = assay: Induction of apoptosis in human HeLa cells assessed as viable cells at 5 uM after 48 hrs by Annexin V-FITC/propidium iodide staining based flow cytometry (reference value: 39.5%); type: functional; conditions: read-out: Activity
HeLa [13] = assay: Induction of apoptosis in human HeLa cells assessed as early apoptotic cells at 5 uM after 48 hrs by Annexin V-FITC/propidium iodide staining based flow cytometry (reference value: 0%); type: functional
HeLa [14] = assay: Induction of apoptosis in human HeLa cells assessed as late apoptotic cells at 5 uM after 48 hrs by Annexin V-FITC/propidium iodide staining based flow cytometry (reference value: 0%); type: functional
HeLa [15] = assay: Induction of apoptosis in human HeLa cells assessed as necrotic cells at 5 uM after 48 hrs by Annexin V-FITC/propidium iodide staining based flow cytometry (reference value: 0.5%); type: functional
HeLa [16] = assay: Induction of apoptosis in human HeLa cells assessed as viable cells at 10 uM after 48 hrs by Annexin V-FITC/propidium iodide staining based flow cytometry (reference value: 39.5%); type: functional; conditions: read-out: Activity
HeLa [17] = assay: Induction of apoptosis in human HeLa cells assessed as early apoptotic cells at 10 uM after 48 hrs by Annexin V-FITC/propidium iodide staining based flow cytometry (reference value: 0%); type: functional
HeLa [18] = assay: Induction of apoptosis in human HeLa cells assessed as late apoptotic cells at 10 uM after 48 hrs by Annexin V-FITC/propidium iodide staining based flow cytometry (reference value: 0%); type: functional
HeLa [19] = assay: Induction of apoptosis in human HeLa cells assessed as necrotic cells at 10 uM after 48 hrs by Annexin V-FITC/propidium iodide staining based flow cytometry (reference value: 0.5%); type: functional
HeLa [20] = assay: Induction of apoptosis in human HeLa cells assessed as viable cells at 20 uM after 48 hrs by Annexin V-FITC/propidium iodide staining based flow cytometry (reference value: 39.5%); type: functional; conditions: read-out: Activity
HeLa [21] = assay: Induction of apoptosis in human HeLa cells assessed as early apoptotic cells at 20 uM after 48 hrs by Annexin V-FITC/propidium iodide staining based flow cytometry (reference value: 0%); type: functional
HeLa [22] = assay: Induction of apoptosis in human HeLa cells assessed as late apoptotic cells at 20 uM after 48 hrs by Annexin V-FITC/propidium iodide staining based flow cytometry (reference value: 0%); type: functional
HeLa [23] = assay: Induction of apoptosis in human HeLa cells assessed as necrotic cells at 20 uM after 48 hrs by Annexin V-FITC/propidium iodide staining based flow cytometry (reference value: 0.5%); type: functional
HeLa [24] = assay: Induction of apoptosis in human HeLa cells after 48 hrs by Annexin V-FITC/propidium iodide staining based flow cytometry; type: functional, cell-based
HeLa [25] = assay: Induction of morphological changes in human HeLa cells assessed as chromatin condensation at 5 to 20 uM after 48 hrs by Hoechst 33258 staining based fluorescence microscopy; type: functional, cell-based
HeLa [26] = assay: Induction of morphological changes in human HeLa cells assessed as nuclei fragmentation at 5 to 20 uM after 48 hrs by Hoechst 33258 staining based fluorescence microscopy; type: functional, cell-based
HeLa [27] = assay: Induction of morphological changes in human HeLa cells at 5 to 20 uM after 48 hrs by Hoechst 33258 staining based fluorescence microscopy; type: functional, cell-based
HeLa [28] = assay: Induction of apoptosis in human HeLa cells assessed as PARP cleavage after 48 hrs by Western blot analysis; type: functional, cell-based
HeLa [29] = assay: Induction of apoptosis in human HeLa cells assessed as caspase 3 cleavage after 48 hrs by Western blot analysis; type: functional, cell-based

IC50 [1]: Not Active
IC50 [2]: Not Active
Structure (SMILES): CC[C@H](C)[C@H](NC(=O)[C@H](C)NC(=O)[C@@H](NC(=O)[C@H](CO)NC(=O)[C@H](Cc1cnc[nH]1)NC(=O)[C@H](CC(C)C)NC(=O)[C@@H]1CCCN1C(=O)[C@@H]1CCCN1C(=O)[C@H](CC(=O)O)NC(=O)[C@H](Cc1ccc([N+](=O)[O-])cc1)NC(=O)[C@@H](NC(=O)[C@H](CCC(N)=O)NC(C)=O)[C@@H](C)O)[C@@H](C)OP(=O)(O)O)C(=O)N[C@@H](Cc1ccc(O)cc1)C(=O)N[C@@H](C)C(=O)N[C@@H](CC(N)=O)C(N)=O (Ac-QT[Phe(4-NO2)]DPPLHS[pT]AIYAN-NH2)

IC50 [1]: Not Active
Drug uptake [4]: Active
Structure (SMILES): CC[C@H](C)[C@H](NC(=O)[C@H](C)NC(=O)[C@@H](NC(=O)[C@H](CO)NC(=O)[C@H](Cc1cnc[nH]1)NC(=O)[C@H](CC(C)C)NC(=O)[C@@H]1CCCN1C(=O)[C@@H]1CCCN1C(=O)[C@H](CC(=O)O)NC(=O)[C@H](Cc1ccc(Cl)c(Cl)c1)NC(=O)[C@@H](NC(=O)[C@H](CCC(N)=O)NC(C)=O)[C@@H](C)O)[C@@H](C)OP(=O)(O)O)C(=O)N[C@@H](Cc1ccc(O)cc1)C(=O)N[C@@H](C)C(=O)N[C@@H](CC(N)=O)C(N)=O (Ac-QT[Phe(3,4-Cl2)]DPPLHS[pT]AIYAN-NH2)
Activity (HeLa [3]): 24.37 - 67.66%
Activity (HeLa [5]): Active
Activity (HeLa [6]): Active
Activity (HeLa [7]): 71%
Activity (HeLa [8]): 40%
Activity (HeLa [9]): inactive
Activity (HeLa [10]): Dose-dependent effect
Activity (HeLa [11]): Dose-dependent effect
viability at 5 µM (HeLa [12]): 83.7%
Activity (HeLa [13]): 14.6%
Activity (HeLa [14]): 1.6%
Activity (HeLa [15]): 0.2%
viability at 10 µM (HeLa [16]): 68.6%
Activity (HeLa [17]): 25.2%
Activity (HeLa [18]): 5.9%
Activity (HeLa [19]): 0.2%
viability at 20 µM (HeLa [20]): 50.8%
Activity (HeLa [21]): 46.9%
Activity (HeLa [22]): 2.1%
Activity (HeLa [23]): 0.1%
Activity (HeLa [24]): Dose-dependent effect
Activity (HeLa [25]): Active
Activity (HeLa [26]): Active
Activity (HeLa [27]): Active
Activity (HeLa [28]): Active
Activity (HeLa [29]): Active

IC50 [1]: Not Active
IC50 [2]: Not Active
Structure (SMILES): CC[C@H](C)[C@H](NC(=O)[C@H](C)NC(=O)[C@@H](NC(=O)[C@H](CO)NC(=O)[C@H](Cc1cnc[nH]1)NC(=O)[C@H](CC(C)C)NC(=O)[C@@H]1CCCN1C(=O)[C@@H]1CCCN1C(=O)[C@H](CC(=O)O)NC(=O)[C@H](Cc1ccc(Cl)cc1)NC(=O)[C@@H](NC(=O)[C@H](CCC(N)=O)NC(C)=O)[C@@H](C)O)[C@@H](C)OP(=O)(O)O)C(=O)N[C@@H](Cc1ccc(O)cc1)C(=O)N[C@@H](C)C(=O)N[C@@H](CC(N)=O)C(N)=O (Ac-QT[Phe(4-Cl)]DPPLHS[pT]AIYAN-NH2)

IC50 [1]: Not Active
IC50 [2]: Not Active
Structure (SMILES): CC[C@H](C)[C@H](NC(=O)[C@H](C)NC(=O)[C@@H](NC(=O)[C@H](CO)NC(=O)[C@H](Cc1cnc[nH]1)NC(=O)[C@H](CC(C)C)NC(=O)[C@@H]1CCCN1C(=O)[C@@H]1CCCN1C(=O)[C@H](CC(=O)O)NC(=O)[C@H](Cc1ccc(OC)cc1)NC(=O)[C@@H](NC(=O)[C@H](CCC(N)=O)NC(C)=O)[C@@H](C)O)[C@@H](C)OP(=O)(O)O)C(=O)N[C@@H](Cc1ccc(O)cc1)C(=O)N[C@@H](C)C(=O)N[C@@H](CC(N)=O)C(N)=O (Ac-QTY(Me)DPPLHS[pT]AIYAN-NH2)

IC50 ([1]; read-out: IC50): 0.716 µM
IC50 [2]: Not Active
Structure (SMILES): CC[C@H](C)[C@H](NC(=O)[C@H](C)NC(=O)[C@@H](NC(=O)[C@H](CO)NC(=O)[C@H](Cc1cnc[nH]1)NC(=O)[C@H](CC(C)C)NC(=O)[C@@H]1CCCN1C(=O)[C@@H]1CCCN1C(=O)[C@H](CC(=O)O)NC(=O)[C@H](Cc1ccc(Cl)c(Cl)c1)NC(C)=O)[C@@H](C)OP(=O)(O)O)C(=O)N[C@@H](Cc1ccc(O)cc1)C(=O)N[C@@H](C)C(=O)N[C@@H](CC(N)=O)C(N)=O (Ac-[Phe(3,4-Cl2)]DPPLHS[pT]AIYAN-NH2)
